According to patent US7732457B2, “Amino-pyridines as inhibitors of β-secretase” (Wyeth LLC, priority 2005, dated 2010):
Structures can show the parent of a compound that is named as a salt.

Key:
human BACE1 = human BACE1 (Homo sapiens, UniProt P56817); assay: BACE-1 fluorescent kinetic assay (cleavage of peptide substrate WABC-6); type: biochemical; details: 10 nM enzyme, 25 μM substrate WABC-6, Na-Acetate pH 4.5, room temperature
Description: Evaluation of BACE-1 Binding Affinity of Test Compounds
Fluorescent Kinetic Assay
Dilution and mixing steps: total reaction volume: 100 μL
100 μM substrate dilution in 1×PBS was prepared, and
Fluorescence Readings: Readings at λex 320 nm and λem 420 nm are taken every 40 sec for 30 min at room temperature and the linear slope for substrate cleavage rate (vi) determined.

Chain of human BACE1 (P56817 46-501): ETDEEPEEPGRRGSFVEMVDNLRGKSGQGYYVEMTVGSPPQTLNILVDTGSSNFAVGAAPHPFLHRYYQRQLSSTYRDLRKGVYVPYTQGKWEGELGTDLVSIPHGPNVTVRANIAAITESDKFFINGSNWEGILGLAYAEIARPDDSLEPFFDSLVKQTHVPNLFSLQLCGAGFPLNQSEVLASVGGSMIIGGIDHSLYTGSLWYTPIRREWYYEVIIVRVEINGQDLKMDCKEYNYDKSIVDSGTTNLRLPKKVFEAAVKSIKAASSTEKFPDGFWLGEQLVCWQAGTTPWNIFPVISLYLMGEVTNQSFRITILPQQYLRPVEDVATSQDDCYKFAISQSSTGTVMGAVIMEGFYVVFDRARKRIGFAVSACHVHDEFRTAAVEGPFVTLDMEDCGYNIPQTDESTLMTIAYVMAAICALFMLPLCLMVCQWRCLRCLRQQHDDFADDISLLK

| SMILES | melting point | BACE 1 IC50 μM (human BACE1) | IC50 (human BACE1) |
| --- | --- | --- | --- |
| Nc1cccc(Cn2c(-c3ccc(Oc4ccc(Br)cc4)cc3)ccc2-c2ccccc2Cl)n1 (as salt: hydrochloride) [Example 38, 6-[2-[4-(4-Bromophenoxy)phenyl]-5-(2-chlorophenyl)pyrrol-1-ylmethyl]pyridin-2-ylamine hydrochloride] | 130 to 138 °C | – | – |
| CCCCCOc1ccc(-c2ccc(-c3ccccc3Cl)n2Cc2ccc(OC)c(NCCCO)n2)cc1 (as salt: hydrochloride) [Example 41, 3-{6-[2-(2-Chloro-phenyl)-5-(4-pentyloxy-phenyl)-pyrrol-1-ylmethyl]-3-methoxy-pyridin-2-ylamino}-propan-1-ol hydrochloride] | 86 to 88 °C | – | – |
| Cc1cccc(C(=O)Nc2ccc(-c3ccc(-c4ccccc4Cl)n3Cc3cccc(N)n3)cc2)c1 [Example 1, N-{4-[1-(6-Amino-pyridin-2-ylmethyl)-5-(2-chloro-phenyl)-1H-pyrrol-2-yl]-phenyl}-3-methyl-benzamide] | 108 to 118 °C | D (D = >5.0 μM-0.10 = μM) | – |
| Nc1cccc(Cn2c(-c3ccc(NC(=O)c4cccc(Br)c4)cc3)ccc2-c2ccccc2Cl)n1 [Example 2, N-{4-[1-(6-Amino-pyridin-2-ylmethyl)-5-(2-chloro-phenyl)-1H-pyrrol-2-yl]-phenyl}-3-bromo-benzamide] | 116 to 122 °C | D (D = >5.0 μM-0.10 = μM) | – |
| Cl.N#CCCCCCOc1ccc(-c2ccc(-c3ccccc3Cl)n2Cc2cccc(N)n2)cc1 [Example 20, 6-{4-[1-(6-Amino-pyridin-2-ylmethyl)-5-(2-chloro-phenyl)-1H-pyrrol-2-yl]-phenoxy}-hexanenitrile hydrochloride] | 98 to 106 °C | – | 1.1 to 5 µM |
| CCCCCOc1ccc(-c2ccc(-c3ccccc3Cl)n2Cc2ccc(OCCCC#N)c(N)n2)cc1 [Example 43B, 4-{2-Amino-6-[2-(2-chlorophenyl)-5-(4-pentyloxyphenyl)pyrrol-1-ylmethyl]-pyridin-3-yloxy}butyronitrile hydrochloride] | – | D (D = >5.0 μM-0.10 = μM) | – |
| Nc1nc(Cn2c(-c3ccc(Br)cc3)ccc2-c2ccccc2Cl)ccc1OCCO [Example 47, 2-{2-Amino-6-[2-(4-bromo-phenyl)-5-(2-chloro-phenyl)-pyrrol-1-ylmethyl]-pyridin-3-yloxy}-ethanol] | 80 to 82 °C | – | 0.11 to 1 µM |
| CCCOc1ccc(-c2ccc(-c3ccccc3Cl)n2Cc2ccc(OCCO)c(N)n2)cc1 [Example 54, 2-[(2-amino-6-{[2-(2-chlorophenyl)-5-(4-propoxyphenyl)-1H-pyrrol-1-yl]methyl}pyridine-3-yl)oxy]ethanol] | 89 to 92 °C | – | 0.11 to 1 µM |
| CCCOc1ccc(-c2ccc(-c3ccccc3)n2Cc2cccc(N)n2)cc1 [Example 56, 6-{[2-phenyl-5-(4-propoxyphenyl)-1H-pyrrol-1-yl]methyl}pyridin-2-amine] | 106 to 107 °C | – | 1.1 to 5 µM |
| CCOC(=O)c1ccc(-c2ccc(-c3ccc(F)cc3)n2Cc2cccc(N)n2)cc1 [Example 57, Ethyl 4-[1-[(6-aminopyridin-2-yl)methyl]-5-(4-fluorophenyl)-1H-pyrrol-2-yl]benzoate] | 172 to 173 °C | D (D = >5.0 μM-0.10 = μM) | – |
| CCOC(=O)c1ccc(-c2ccc(-c3ccccc3)n2Cc2cccc(N)n2)cc1 [Example 58, Ethyl 4-{1-[(6-aminopyridin-2-yl)methyl]-5-phenyl-1H-pyrrol-2-yl}benzoate] | 161 to 162 °C | D (D = >5.0 μM-0.10 = μM) | – |
| CCNC(=O)c1ccc(-c2ccc(-c3ccc(F)cc3)n2Cc2cccc(N)n2)cc1 [Example 61, 4-[1-[(6-aminopyridin-2-yl)methyl]-5-(4-fluorophenyl)-1H-pyrrol-2-yl]-N-ethylbenzamide] | 184 to 185 °C | – | 1.1 to 5 µM |
| Nc1cccc(Cn2c(-c3ccccc3)ccc2-c2ccc(C(=O)NCC3CCCO3)cc2)n1 (stereo not shown) [Example 66, 4-{1-[(6-aminopyridin-2-yl)methyl]-5-phenyl-1H-pyrrol-2-yl}-N-(tetrahydrofuran-2-ylmethyl)benzamide] | 98 to 99 °C | D (D = >5.0 μM-0.10 = μM) | – |

More lines, now with the values ahead:

| melting point | BACE 1 IC50 μM (human BACE1) | IC50 (human BACE1) | SMILES |
| --- | --- | --- | --- |
| 135 to 140 °C | – | – | Nc1cccc(Cn2c(-c3ccc(Oc4ncccn4)cc3)ccc2-c2ccccc2Cl)n1 (as salt: hydrochloride) [Example 31, 6-{2-(2-Chloro-phenyl)-5-[4-(Pyrimidin-2-yloxy)-phenyl]-pyrrol-1-ylmethyl}-pyridin-2-ylamine hydrochloride] |
| 126 to 130 °C | – | – | Nc1cccc(Cn2c(-c3ccc(Oc4nccs4)cc3)ccc2-c2ccccc2Cl)n1 (as salt: hydrochloride) [Example 32, 6-{2-(2-Chloro-phenyl)-5-[4-(thiazol-2-yloxy)-phenyl]-pyrrol-1-ylmethyl}-pyridin-2-ylamine hydrochloride] |
| 145 to 147 °C | – | – | CCCCCNc1ccc(-c2ccc(-c3ccccc3Cl)n2Cc2cccc(N)n2)cc1 (as salt: hydrochloride) [Example 53, 6-[2-(2-Chloro-phenyl)-5-(4-pentylamino-phenyl)-pyrrol-1-ylmethyl]-pyridin-2-ylamine hydrochloride] |
| 154 to 158 °C | – | 1.1 to 5 µM | Nc1cccc(Cn2c(-c3ccc(Br)cc3)ccc2-c2ccccc2Cl)n1 [Example 4, 6-[2-(4-bromo-phenyl)-5-(2-chloro-phenyl)-pyrrol-1-ylmethyl]-pyridin-2-ylamine] |
| 170 to 172 °C | D (D = >5.0 μM-0.10 = μM) | – | Nc1cccc(Cn2c(-c3ccc(O)cc3)ccc2-c2ccccc2Cl)n1 [Example 6, 4-[1-(6-Amino-pyridin-2-ylmethyl)-5-(2-chloro-phenyl)-1H-pyrrol-2-yl]-phenol] |
| 126 to 130 °C | – | 0.11 to 1 µM | Cl.N#CCCCCOc1ccc(-c2ccc(-c3ccccc3Cl)n2Cc2cccc(N)n2)cc1 [Example 19, 5-{4-[1-(6-Amino-pyridin-2-ylmethyl)-5-(2-chloro-phenyl)-1H-pyrrol-2-yl]-phenoxy}-pentanenitrile hydrochloride] |
| 163 to 166 °C | – | 0.11 to 1 µM | Nc1cccc(Cn2c(-c3ccc(-c4cccnc4)cc3)ccc2-c2ccccc2Cl)n1 [Example 28] |
| 145 to 150 °C | – | 1.1 to 5 µM | CCCCC(=O)Nc1ccc(-c2ccc(-c3ccccc3Cl)n2Cc2cccc(N)n2)cc1 [Example 52, Pentanoic acid {4-[1-(6-amino-pyridin-2-ylmethyl)-5-(2-chlorophenyl)-1H-pyrrol-2-yl]-phenyl}-amide] |
| – | – | 1.1 to 5 µM | CCCCCNc1ccc(-c2ccc(-c3ccccc3Cl)n2Cc2cccc(N)n2)cc1 [Example 53, 6-[2-(2-Chloro-phenyl)-5-(4-pentylamino-phenyl)-pyrrol-1-ylmethyl]-pyridin-2-ylamine hydrochloride] |
